Data as given in US9096624B2 (OSI Pharmaceuticals, LLC, priority 2009, dated 2015).
Where “and” joins values, the source holds several entries; their conditions need not be identical. Identical values can stand only once.

Experiments:
FAK [1] = biological target: T1, FAK (Homo sapiens, UniProt Q05397); assay: biochemical
FAK [2] = biological target: T1, FAK; assay: Cell-based capture ELISA for inhibition of FAK autophosphorylation [pY397] in U87MG cells
FAK [3] = biological target: T1, FAK; assay: Cell-based capture ELISA for inhibition of FAK autophosphorylation [pY397] in MiaPaCa2 cells
Method: Cell-Based Assays for Inhibition of FAK Autophosphorylation: MiaPaCa2 and U87MG
ELISA kit from Invitrogen (KHO0441).
Reagents Provided in Biosource FAK [pY397]
The cells were then suspended in cell assay medium.

[4] = Mean FAK Cell Mechanistic IC50 + 50% mP U87MG, + 50% mouse plasma
[5] = U87MG FAK Cell Mech IC50 +hP, + human plasma
[6] = U87MG FAK Cell Mech IC50 +mP, + mouse plasma
[7] = MIA-PaCa2 cells, + 50% mouse plasma (Table 2), read-out: Mean FAK Cell Mechanistic IC50 + 50% mP MIA-PaCa2
[8] = MIA-PaCa2 cells, + 50% mouse plasma (Table 3), read-out: Mean FAK Cell Mechanistic IC50 + 50% mP MIA-PaCa2
[9] = MIA-PaCa2 cells on fibronectin, 2 h, no plasma, read-out: Mean FAK Cell Mechanistic IC50 MIA-PaCa2
[10] = MIA-PaCa2 cells, + 50% human plasma, read-out: Mean FAK Cell Mechanistic IC50 + 50% hP MIA-PaCa2

T1 sequence (Q05397 whole entry): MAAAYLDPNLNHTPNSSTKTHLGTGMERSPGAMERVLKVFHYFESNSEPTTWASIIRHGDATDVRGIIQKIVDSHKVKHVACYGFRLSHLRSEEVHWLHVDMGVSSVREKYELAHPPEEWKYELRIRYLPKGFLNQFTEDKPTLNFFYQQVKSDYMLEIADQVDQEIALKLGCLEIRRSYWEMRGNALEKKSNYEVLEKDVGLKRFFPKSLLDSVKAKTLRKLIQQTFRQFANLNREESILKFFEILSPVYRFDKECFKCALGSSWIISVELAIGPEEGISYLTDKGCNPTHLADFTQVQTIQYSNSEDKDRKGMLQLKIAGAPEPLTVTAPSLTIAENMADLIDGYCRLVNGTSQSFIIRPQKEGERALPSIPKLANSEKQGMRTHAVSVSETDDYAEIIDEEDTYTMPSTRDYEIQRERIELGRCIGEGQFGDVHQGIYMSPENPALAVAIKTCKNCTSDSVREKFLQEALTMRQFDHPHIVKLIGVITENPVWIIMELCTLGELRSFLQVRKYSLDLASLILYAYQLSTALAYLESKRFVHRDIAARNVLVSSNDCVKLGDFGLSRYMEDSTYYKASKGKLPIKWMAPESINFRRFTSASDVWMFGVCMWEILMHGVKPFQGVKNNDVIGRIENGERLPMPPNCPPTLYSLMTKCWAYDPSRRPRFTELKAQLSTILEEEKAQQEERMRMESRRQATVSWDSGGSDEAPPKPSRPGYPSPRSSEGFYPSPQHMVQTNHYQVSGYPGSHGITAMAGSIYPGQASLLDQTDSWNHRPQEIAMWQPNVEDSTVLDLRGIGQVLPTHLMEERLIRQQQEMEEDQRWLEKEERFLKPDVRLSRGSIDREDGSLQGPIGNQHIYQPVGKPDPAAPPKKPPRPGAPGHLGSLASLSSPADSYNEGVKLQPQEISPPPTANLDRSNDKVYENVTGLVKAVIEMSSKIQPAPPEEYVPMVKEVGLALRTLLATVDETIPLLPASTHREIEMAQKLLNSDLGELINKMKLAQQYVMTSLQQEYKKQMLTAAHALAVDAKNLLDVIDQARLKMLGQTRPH

## CCOP(=O)(Cc1ccc(Nc2ncc(C(F)(F)F)c(Nc3cccc(F)c3C(=O)NC)n2)c(OC)c1)OCC [Example 155, diethyl (4-{[4-{[3-fluoro-2-(methylcarbamoyl)phenyl]amino}-5-(trifluoromethyl)pyrimidin-2-yl]amino}-3-methoxybenzyl)phosphonate]
FAK [1]
  IC50: < 1000 nM
FAK [2]; [4]
  IC50: < 1000 nM

## CCOP(=O)(Cc1ccc(Nc2ncc(C(F)(F)F)c(Nc3ccc(C4CCN(C)CC4)c4c3C(=O)N(C)C4)n2)c(OC)c1)OCC [Example 269, Diethyl (3-methoxy-4-{[4-{[2-methyl-7-(1-methylpiperidin-4-yl)-3-oxo-2,3-dihydro-1H-isoindol-4-yl]amino}-5-(trifluoromethyl)pyrimidin-2-yl]amino}benzyl)phosphonate]
FAK [1]
  IC50: < 1000 nM
FAK [2]; [4]
  IC50: < 1000 nM

## CCOP(=O)(Cc1ccc(Nc2ncc(C(F)(F)F)c(Nc3c(F)cccc3C(=O)NC)n2)c(OC)c1)OCC [Example 154, Diethyl (4-{[4-{[2-fluoro-6-(methylcarbamoyl)phenyl]amino}-5-(trifluoromethyl)pyrimidin-2-yl]amino}-3-methoxybenzyl)phosphonate]
FAK [1]
  IC50: < 1000 nM
FAK [2]; [4]
  IC50: < 1000 nM

## CCOC(=O)[C@H]1CC[C@H](c2ccc(Nc3nc(Nc4ccc(CP(=O)(OCC)OCC)cc4OC)ncc3C(F)(F)F)c3c(=O)c(C)c[nH]c32)CC1 [Example 304, Ethyl trans-4-(5-{[2-({4-[(diethoxyphosphoryl)methyl]-2-methoxyphenyl}amino)-5-(trifluoromethyl)pyrimidin-4-yl]amino}-3-methyl-4-oxo-1,4-dihydroquinolin-8-yl)cyclohexanecarboxylate]
FAK [1]
  IC50: < 1000 nM
FAK [2]; [4]
  IC50: < 1000 nM

## COc1cc(P(C)(C)=O)ccc1Nc1ncc(Cl)c(Nc2ccccc2C(=O)NC(C)C)n1 [Cpd A, reference compound]
FAK [2]; [5]
  IC50: > 4000 nM
FAK [2]; [6]
  IC50: 3.69 µM and > 4 µM (3×)

## COc1cc(P(C)(C)=O)ccc1Nc1ncc(Cl)c(Nc2cccc3c2C(=O)N(C)C3)n1 [Cpd B, reference compound]
FAK [2]; [5]
  IC50: > 4000 nM
FAK [2]; [6]
  IC50: 257 nM and 540 nM

## CCOP(=O)(Cc1ccc(Nc2ncc(C(F)(F)F)c(Nc3ccccc3C(=O)O)n2)c(OC)c1)OCC [Example 290, 2-{[2-({4-[(Diethoxyphosphoryl)methyl]-2-methoxyphenyl}amino)-5-(trifluoromethyl)pyrimidin-4-yl]amino}benzoic acid]
FAK [2]; [4]
  IC50: 1000 to 10000 nM

## CCOP(=O)(Cc1ccc(Nc2ncc(C(F)(F)F)c(Nc3ccc(-c4cnn(CC(C)(C)O)c4)c4c3C(=O)N(C)C4)n2)c(OC)c1)OCC [Example 72, Diethyl (4-{[4-({7-[1-(2-hydroxy-2-methylpropyl)-1H-pyrazol-4-yl]-2-methyl-3-oxo-2,3-dihydro-1H-isoindol-4-yl}amino)-5-(trifluoromethyl)pyrimidin-2-yl]amino}-3-methoxybenzyl)phosphonate]
FAK [3]; [7]
  IC50: < 1000 nM
FAK [1]
  IC50: < 1000 nM

## CCOP(=O)(Cc1ccc(Nc2ncc(C(F)(F)F)c(Nc3ccccc3C(=O)N3CCCC3)n2)cc1)OCC [Example 176, Diethyl (4-{[4-{[2-(pyrrolidin-1-ylcarbonyl)phenyl]amino}-5-(trifluoromethyl)pyrimidin-2-yl]amino}benzyl)phosphonate]
FAK [3]; [8]
  IC50: 1000 to 10000 nM
FAK [1]
  IC50: < 1000 nM

## CCOP(=O)(Cc1ccc(Nc2ncc(C(F)(F)F)c(Nc3ccc([C@H]4CC[C@H](O)CC4)c4c3C(=O)N(C)C4)n2)cc1)OCC (stereo in doubt) [Example 92, Diethyl (4-{[4-{[7-(trans-4-hydroxycyclohexyl)-2-methyl-3-oxo-2,3-dihydro-1H-isoindol-4-yl]amino}-5-(trifluoromethyl)pyrimidin-2-yl]amino}benzyl)phosphonate]
FAK [3]; [7]
  IC50: < 1000 nM
FAK [1]
  IC50: < 1000 nM

## CCOP(=O)(Cc1ccc(Nc2ncc(C(F)(F)F)c(Nc3cccc4c3C(=O)N(C)CC4)n2)cc1)OCC [Example 132, Diethyl [4-({4-[(2-methyl-1-oxo-1,2,3,4-tetrahydroisoquinolin-8-yl)amino]-5-(trifluoromethyl)pyrimidin-2-yl}amino)benzyl]phosphonate]
FAK [3]; [8]
  IC50: < 1000 nM
FAK [1]
  IC50: < 1000 nM

## CCOP(=O)(Cc1ccc(Nc2ncc(C(F)(F)F)c(Nc3ccc(CN4CCCC4)c4c3C(=O)N(C)C4)n2)c(OC)c1)OCC [Example 110, Diethyl (3-methoxy-4-{[4-{[2-methyl-3-oxo-7-(pyrrolidin-1-ylmethyl)-2,3-dihydro-1H-isoindol-4-yl]amino}-5-(trifluoromethyl)pyrimidin-2-yl]amino}benzyl)phosphonate]
FAK [3]; [8]
  IC50: < 1000 nM
FAK [1]
  IC50: < 1000 nM

## CCCOP(=O)(OCCC)c1ccc(Nc2ncc(C(F)(F)F)c(NCc3cccnc3N(C)S(C)(=O)=O)n2)cc1 [Example 37, dipropyl [4-({4-[({2-[methyl(methylsulfonyl)amino]pyridin-3-yl}methyl)amino]-5-(trifluoromethyl)pyrimidin-2-yl}amino)phenyl]phosphonate]
FAK [3]; [7]
  IC50: 1000 to 10000 nM
FAK [1]
  IC50: < 1000 nM

## CCCOP(=O)(OCCC)c1cccc(Nc2ncc(C(F)(F)F)c(NCc3cccnc3N(C)S(C)(=O)=O)n2)c1 [Example 57, dipropyl [3-({4-[({2-[methyl(methylsulfonyl)amino]pyridin-3-yl}methyl)amino]-5-(trifluoromethyl)pyrimidin-2-yl}amino)phenyl]phosphonate]
FAK [3]; [7]
  IC50: 1000 to 10000 nM
FAK [1]
  IC50: < 1000 nM

## CCOP(=O)(OCC)C(OCC(F)(F)F)c1ccc(Nc2ncc(C(F)(F)F)c(Nc3ccccc3C(=O)NC)n2)cc1 (stereo not shown) [Example 115, Diethyl [(4-{[4-{[2-(methylcarbamoyl)phenyl]amino}-5-(trifluoromethyl)pyrimidin-2-yl]amino}phenyl)(2,2,2-trifluoroethoxy)methyl]phosphonate]
FAK [3]; [8]
  IC50: 1000 to 10000 nM
FAK [1]
  IC50: < 1000 nM

## CNC(=O)c1ccccc1Nc1nc(Nc2ccc(P(C)(C)=O)cc2)ncc1C(F)(F)F [Example 18, 2-{[2-{[4-(Dimethylphosphoryl)phenyl]amino}-5-(trifluoromethyl)pyrimidin-4-yl]amino}-N-methylbenzamide]
FAK [3]; [9]
  IC50: < 1000 nM
FAK [3]; [10]
  IC50: < 1000 nM
FAK [3]; [7]
  IC50: < 1000 nM
FAK [1]
  IC50: < 1000 nM

## CCOP(=O)(OCC)C(C)(C)c1ccc(Nc2ncc(C(F)(F)F)c(Nc3ccccc3C(=O)NC)n2)cc1 [Example 21, Diethyl [2-(4-{[4-{[2-(methylcarbamoyl)phenyl]amino}-5-(trifluoromethyl)pyrimidin-2-yl]amino}phenyl)propan-2-yl]phosphonate]
FAK [3]; [9]
  IC50: < 1000 nM
FAK [3]; [10]
  IC50: < 1000 nM
FAK [1]
  IC50: < 1000 nM

## CCOP(=O)(Cc1ccc(Nc2ncc(C(F)(F)F)c(Nc3ccc(C4CCNCC4)c4c3C(=O)N(C)C4)n2)cc1)OCC [Example 247, Diethyl (4-{[4-{[2-methyl-3-oxo-7-(piperidin-4-yl)-2,3-dihydro-1H-isoindol-4-yl]amino}-5-(trifluoromethyl)pyrimidin-2-yl]amino}benzyl)phosphonate]
FAK [3]; [8]
  IC50: < 1000 nM
FAK [1]
  IC50: < 1000 nM

## COCCOP(=O)(Cc1ccc(Nc2ncc(C(F)(F)F)c(Nc3ccc([C@H]4CC[C@H](O)CC4)c4c3C(=O)N(C)C4)n2)cc1)OCCOC [Example 189, Bis(2-methoxyethyl) (4-{[4-{[7-(trans-4-hydroxycyclohexyl)-2-methyl-3-oxo-2,3-dihydro-1H-isoindol-4-yl]amino}-5-(trifluoromethyl)pyrimidin-2-yl]amino}benzyl)phosphonate]
FAK [3]; [8]
  IC50: < 1000 nM
FAK [1]
  IC50: < 1000 nM

## COP(=O)(Cc1cccc(Nc2ncc(C(F)(F)F)c(NCc3cccnc3N(C)S(C)(=O)=O)n2)c1)OC [Example 56, dimethyl [3-({4-[({2-[methyl(methylsulfonyl)amino]pyridin-3-yl}methyl)amino]-5-(trifluoromethyl)pyrimidin-2-yl}amino)benzyl]phosphonate]
FAK [3]; [9]
  IC50: < 1000 nM
FAK [3]; [10]
  IC50: < 1000 nM
FAK [1]
  IC50: < 1000 nM

## CNC(=O)c1ccccc1Nc1nc(Nc2ccc(CP(=O)(OCCO)OCCO)cc2OC)ncc1C(F)(F)F [Example 113, Bis(2-hydroxyethyl)(3-methoxy-4-{[4-{[2-(methylcarbamoyl)phenyl]amino}-5-(trifluoromethyl)pyrimidin-2-yl]amino}benzyl)phosphonate]
FAK [3]; [8]
  IC50: < 1000 nM
FAK [1]
  IC50: < 1000 nM

## CCOP(=O)(Cc1ccc(Nc2ncc(C(F)(F)F)c(Nc3ccc(N4CCC(O)CC4)c4c3C(=O)N(C)C4)n2)c(OC)c1)OCC [Example 85, Diethyl (4-{[4-{[7-(4-hydroxypiperidin-1-yl)-2-methyl-3-oxo-2,3-dihydro-1H-isoindol-4-yl]amino}-5-(trifluoromethyl)pyrimidin-2-yl]amino}-3-methoxybenzyl)phosphonate]
FAK [3]; [7]
  IC50: < 1000 nM
FAK [1]
  IC50: < 1000 nM

## CCOP(=O)(Cc1ccc(Nc2ncc(C(F)(F)F)c(Nc3ccc([C@H]4CC[C@H](N5CCN(C)CC5)CC4)c4c3C(=O)N(C)C4)n2)c(OC)c1)OCC [Example 96, Diethyl (3-methoxy-4-{[4-({2-methyl-7-[trans-4-(4-methylpiperazin-1-yl)cyclohexyl]-3-oxo-2,3-dihydro-1H-isoindol-4-yl}amino)-5-(trifluoromethyl)pyrimidin-2-yl]amino}benzyl)phosphonate]
FAK [3]; [7]
  IC50: < 1000 nM
FAK [1]
  IC50: < 1000 nM
